Results reported in patent US6627793B2, “Low temperature-inducible wheat WCS120 gene promoter” (Université du Québec A Montréal, priority 1998, dated 2003).

Legend:
[1] = system: PKC-like activity in CA nuclear extracts; experiment: PKC activity in nuclear extracts with the PKC-specific substrate peptide MARCKS; type: biochemical, wheat
Procedure: FIGS. 5. a) to c) Analysis of endogenous kinases in nuclear extracts from non-acclimated (NA) and cold-acclimated (CA) wheat plants. a) In vitro phosphorylation of nuclear proteins. Equal amounts of nuclear proteins (10 μg) were incubated with [γ-^32P]ATP and separated by SDS-PAGE. The gel was dried and exposed to a X-ray film. b) Immunodetection of a PKCg homolog in nuclear and soluble extracts from non-acclimated (NA) and cold-acclimated (CA) plants. Equal amounts of proteins (10 μg) were separated by SDS-PAGE, blotted onto nitrocellulose membranes and probed with the anti-PKCg antibody. CA2 and CA7 indicate soluble extracts from 2 and 7 days cold-acclimated plants. c) PKC activity was measured in the nuclear extracts with the peptide MARCKS as the PKC-specific substrate and containing the indicated chemicals. […] Aliquotes of each reaction were separated by SDS-PAGE and visualized by autoradiography. PS, phosphatydylserine; DAG, diacylglycerol.
To determine the qualitative changes in the phosphorylation pattern following cold treatment, the nuclear extracts from both NA and CA plants (10 μg protein) were incubated for 5 to 40 min at 30° C. in binding buffer (Harter, K., supra) containing 1 mM MgCl2, 50 μCi [γ-^32P]ATP and 1 mM CaCl2. At specified intervals, reactions were stopped by adding one volume of 2× SDS-sample buffer and the proteins were separated by SDS-PAGE. Gels were dried, exposed to X-ray film and the signal intensity of individual bands was determined by quantitative densitometry. To accurately quantify the Ca^2+-dependent and Ca^2+-independent nuclear kinase activities, the incorporation of ^32P on histone III-S, casein or the PKC-specific substrate peptide MARCKS (Biomol; Blackshear, P. J. (1993) J. Biol. Chem. 268: 1501-1504) was determined as described elsewhere (Kitano, T., et al. (1986) Methods Enzymol. 124: 349-352). Histone III-S and casein are suitable substrates for phosphorylation assays, particularly when dealing with a crude mixture of uncharacterized protein kinases. […]

[2] = system: WCS120 family of proteins; experiment: In vivo okadaic acid treatment of wheat shoots at low temperature, western blot densitometry of WCS120 proteins; set-up: species or system wheat (Triticum aestivum L. cv Fredrick); conditions: 4° C.
Procedure: FIGS. 6. a) to c) Effect of in vivo okadaic acid treatment on the accumulation of the cold-inducible WCS120 family of proteins. Wheat seedlings were incubated at low temperature without or with different concentrations of okadaic acid (OA), and soluble proteins were extracted and separated by SDS-PAGE. a) Immunodetection of the WCS120 protein family in the soluble extracts. Following the treatment, the proteins were analyzed by western blot using the anti-WCS120 antibody. b) SDS-PAGE gel stained with Coomassie blue showing equal protein loading. c) Densitometric quantification of the individual protein bands of 50, 66 and 200 kDa of the immunoblot shown in a. The 50 kDa protein is encoded by Wcs120 gene. Values represent averages and standard deviations of the integrated intensity of the pixels for each protein band, excluding the background, from at least three independent experiments.
Wheat shoots were cut and immediately incubated in water or in the presence of the phosphatase inhibitor okadaic acid (OA) at 10, 100 or 1000 nM. The plants were left at room temperature for 4 hours to allow translocation of the inhibitor, then transferred to 4° C. for 24 hours, and the total soluble proteins were extracted as described (Limin, A. E., supra). […] The signal intensity for individual protein bands on the X-ray films was quantified with a Personal Densitometer SI (Molecular Dynamics) using the ImageQuaNT version 4.2 software. […]
To determine the role of protein phosphatases on the expression of Wcs120 gene, wheat seedlings were incubated at 4° C. in the presence of okadaic acid (a potent and specific inhibitor of protein phosphatases PP1 and PP2A) (Smith, R. D., et al. (1996) Annu. Rev. Plant. Physiol. Plant. Mol. Biol. 47:101-125). Soluble proteins were extracted and the accumulation of the WCS120 family of proteins was analyzed by quantitative densitometry of western blots. […]

[3] = 1 μM okadaic acid, densitometric analysis

Compound: O=C(O)CN(CCOCCOCCN(CC(=O)O)CC(=O)O)CC(=O)O [EGTA]
- inhibition of the phosphorylation of MARCKS ([1]; 0.5 mM EGTA): only partial inhibition

Compound: C=C1[C@@H](O)[C@@H]2O[C@]3(CC[C@H](/C=C/[C@@H](C)[C@@H]4CC(C)=C[C@@]5(O[C@H](C[C@@](C)(O)C(=O)O)CC[C@H]5O)O4)O3)CC[C@H]2O[C@@H]1[C@@H](O)C[C@H](C)[C@H]1O[C@@]2(CCCCO2)CC[C@H]1C [okadaic acid]
- increase of the 50 and 66 kDa proteins with respect to plants exposed to low temperature without inhibitor [2, 3]: 2.2 fold
- increase of the 200 kDa protein with respect to plants exposed to low temperature without inhibitor [2, 3]: 9 fold
- accumulation of the 50, 66 and 200 kDa WCS120 proteins at low temperature ([2]; several concentrations of OA (10, 100 or 1000 nM)): significantly stimulated

Compound: Calphostin C
- inhibition of MARCKS phosphorylation (32P incorporation, scintillation counting) ([1]; 0.5 mM Calphostin C): complete inhibition
- inhibition of MARCKS phosphorylation ([1]; Calphostin C at 0.1 µM): did not significantly inhibit
